In patent US9090609B2, “Benzyl-substituted carbamates and use thereof” (BAYER INTELLECTUAL PROPERTY GMBH, priority 2010, dated 2015):

How the values were obtained:
[1] = biological target: T1, recombinant guanylate cyclase reporter cell line (Rattus norvegicus, UniProt P19686+P20595); assay: Effect on a recombinant guanylate cyclase reporter cell line; assay type: cell-based
T1 construct: expressed in transfected cells; host or cells: recombinant reporter cell line
T1 sequence (P20595 1-619): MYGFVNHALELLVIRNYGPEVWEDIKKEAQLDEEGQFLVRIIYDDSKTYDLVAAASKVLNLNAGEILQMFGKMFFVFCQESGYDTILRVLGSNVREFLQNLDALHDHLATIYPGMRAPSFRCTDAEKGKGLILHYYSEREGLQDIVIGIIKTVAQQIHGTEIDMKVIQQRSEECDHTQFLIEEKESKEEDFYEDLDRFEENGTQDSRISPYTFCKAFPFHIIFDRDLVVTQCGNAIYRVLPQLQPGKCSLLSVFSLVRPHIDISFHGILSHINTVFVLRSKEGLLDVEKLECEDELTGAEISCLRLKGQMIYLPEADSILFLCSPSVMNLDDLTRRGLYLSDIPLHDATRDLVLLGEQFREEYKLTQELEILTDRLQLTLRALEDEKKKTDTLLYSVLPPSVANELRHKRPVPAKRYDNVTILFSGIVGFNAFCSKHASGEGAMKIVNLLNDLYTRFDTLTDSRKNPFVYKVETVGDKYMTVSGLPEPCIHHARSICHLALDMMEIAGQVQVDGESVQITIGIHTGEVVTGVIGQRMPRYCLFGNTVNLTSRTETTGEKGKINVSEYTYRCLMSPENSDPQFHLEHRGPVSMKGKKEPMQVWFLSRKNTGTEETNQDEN
T1 sequence (P19686 1-690): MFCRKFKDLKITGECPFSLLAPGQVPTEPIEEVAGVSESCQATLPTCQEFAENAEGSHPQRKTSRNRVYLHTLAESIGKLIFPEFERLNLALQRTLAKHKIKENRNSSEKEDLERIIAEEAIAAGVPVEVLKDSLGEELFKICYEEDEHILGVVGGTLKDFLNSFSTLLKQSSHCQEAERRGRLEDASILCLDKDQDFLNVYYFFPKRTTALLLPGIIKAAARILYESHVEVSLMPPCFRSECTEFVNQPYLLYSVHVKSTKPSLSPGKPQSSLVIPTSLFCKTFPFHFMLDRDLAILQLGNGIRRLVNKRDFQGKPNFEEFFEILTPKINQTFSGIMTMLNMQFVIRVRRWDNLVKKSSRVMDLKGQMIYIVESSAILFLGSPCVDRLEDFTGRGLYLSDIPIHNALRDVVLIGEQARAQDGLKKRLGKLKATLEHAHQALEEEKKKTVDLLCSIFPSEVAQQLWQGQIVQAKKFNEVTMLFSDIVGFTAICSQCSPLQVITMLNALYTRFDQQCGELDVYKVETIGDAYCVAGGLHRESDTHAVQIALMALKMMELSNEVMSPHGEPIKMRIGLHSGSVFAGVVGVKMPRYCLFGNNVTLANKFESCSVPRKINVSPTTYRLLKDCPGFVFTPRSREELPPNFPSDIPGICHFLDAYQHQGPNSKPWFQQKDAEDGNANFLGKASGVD
Method: B-2. Effect on a Recombinant Guanylate Cyclase Reporter Cell Line
The cellular activity of the compounds according to the invention is determined using a recombinant guanylate cyclase reporter cell line, as described in F. Wunder et al., Anal. Biochem. 339, 104-112 (2005).

aorta rings = assay: Vasorelaxant action in vitro (phenylephrine-contracted aorta rings); details: Oryctolagus cuniculus; concentration needed to reduce the phenylephrine contraction of rabbit aorta rings by 50%
Method: B-1. Vasorelaxant Action In Vitro
Rabbits are stunned by a blow to the neck and exsanguinated. The aorta is removed, freed from adhering tissue and divided into rings of a width of 1.5 mm. The rings are placed individually under an initial tension in 5 ml organ baths with Krebs-Henseleit solution which is at 37° C., is gassed with carbogen and has the following composition (in each case mM): sodium chloride 119; potassium chloride: 4.8; calcium chloride dihydrate: 1; magnesium sulfate heptahydrate: 1.4; potassium dihydrogenphosphate: 1.2; sodium bicarbonate: 25; glucose: 10. The contractile force is determined with Statham UC2 cells, amplified and digitalized using A/D transducers (DAS 1802 HC, Keithley Instruments Munich), and recorded in parallel on linear recorders. To obtain a contraction, phenylephrine is added to the bath cumulatively in increasing concentration. After several control cycles, the substance to be investigated is added in each further run in increasing dosage in each case, and the height of the contraction achieved is compared with the height of the contraction reached in the last preceding run. This is used to calculate the concentration needed to reduce the magnitude of the control value by 50% (IC50 value). The standard administration volume is 5 μl; the DMSO content in the bath solution corresponds to 0.1%.

Compound	MEC (minimum effective concentration) [1] [µM]	IC50 (aorta rings) [nM]
COC(=O)N(Cc1ccccc1)c1cnc(-n2nc(Cc3ccccc3F)c3ncccc32)nc1N [Example 2, Methyl {4-amino-2-[3-(2-fluorobenzyl)-1H-pyrazolo[4,3-b]pyridin−1-yl]pyrimidin-5-yl}benzylcarbamate]	0.3	0.705
COC(=O)N(Cc1ccccc1F)c1c(N)nc(-n2nc(Cc3ccccc3F)c3ncccc32)nc1N [Example 3, Methyl {4,6-diamino-2-[3-(2-fluorobenzyl)-1H-pyrazolo[4,3-b]pyridin-1-yl]pyrimidin-5-yl}(2-fluorobenzyl)carbamate]	0.1	0.399
COC(=O)N(Cc1ccc(F)cc1)c1c(N)nc(-n2nc(Cc3ccccc3F)c3ncccc32)nc1N [Example 4, Methyl {4,6-diamino-2-[3-(2-fluorobenzyl)-1H-pyrazolo[4,3-b]pyridin-1-yl]pyrimidin-5-yl}(4-fluorobenzyl)carbamate]	0.1	0.359
CC(C)OC(=O)N(Cc1ccccc1)c1c(N)nc(-n2nc(Cc3ccccc3F)c3ncc(F)cc32)nc1N [Example 6, Isopropyl benzyl{4,6-diamino-2-[6-fluoro-3-(2-fluorobenzyl)-1H-pyrazolo[4,3-b]pyridin-1-yl]pyrimidin-5-yl}carbamate]	0.1	0.745

These reach a lower IC50 (aorta rings). Values come first.

MEC (minimum effective concentration) [1] [µM]	IC50 (aorta rings) [nM]	Compound
0.1	0.185	COC(=O)N(Cc1ccccc1)c1c(N)nc(-n2nc(Cc3ccccc3F)c3ncccc32)nc1N [Example 5, Methyl benzyl{4,6-diamino-2-[3-(2-fluorobenzyl)-1H-pyrazolo[4,3-b]pyridin-1-yl]pyrimidin-5-yl}carbamate]
	0.154	COC(=O)N(Cc1ccccc1)c1c(N)nc(-n2nc(Cc3ccccc3F)c3ncc(F)cc32)nc1N [Example 8, Methyl benzyl{4,6-diamino-2-[6-fluoro-3-(2-fluorobenzyl)-1H-pyrazolo[4,3-b]pyridin-1-yl]pyrimidin-5-yl}carbamate]
